Test results: patent publication US9539231B2, “Method for treating triple-negative breast cancer using AMPI-109” (The Regents of the University of Colorado, a body corporate, priority 2014, dated 2017)

Experiments:
[1] = test system: BT-20; assay: MTS growth assay, 3 days treatment; format: cell-based, human; settings: BT-20, TN (Unclass.), 100 nM
Experimental: (§1) Breast cancer is a very heterogeneous disease consisting of multiple molecular subtypes. In order to examine the antitumorigenic properties of AMPI-109 in human breast cancer cells of various subtypes, a cohort of breast cancer cell lines were treated with AMPI-109 at its IC50 (the dose where 50% of the cells show the desired effects), equimolar 1,25D or ethanol control and cellular growth was quantified. In particular, the cell lines were treated at the approximate IC50 (100 nM) of AMPI-109, 1,25D (100 nM) or ethanol control for 3 days. MTS assays were then performed. The experiment was repeated three times with 6 replicates per experiment.
(§2) The percentage in Table 1 represents growth compared to control treatment. The p values represent significance of difference between 1,25D inhibition and AMPI-109 inhibition of growth. It can be concluded from the data that AMPI-109 inhibits the growth of multiple TN breast cancer subtypes and this inhibition appeared to be almost entirely specific for TN breast cancer cell lines.

[2] = test system: BT-474; assay: MTS growth assay, 3 days treatment; format: cell-based, human; settings: BT-474, Luminal B, 100 nM
Experimental: as §1, §2

[3] = test system: BT-549; assay: MTS growth assay, 3 days treatment; format: cell-based, human; settings: BT-549, TN (M), 100 nM
Experimental: as §1, §2

[4] = test system: HCC70; assay: MTS growth assay, 3 days treatment; format: cell-based, human; settings: HCC70, TN (BL2), 100 nM
Experimental: as §1, §2

[5] = test system: MCF10A; assay: MTS growth assay, 3 days treatment; format: cell-based, human; settings: Nonmalignant, 100 nM
Experimental: as §1, §2

[6] = test system: MCF7; assay: MTS growth assay, 3 days treatment; format: cell-based, human; settings: MCF7, Luminal A, 100 nM
Experimental: as §1, §2

[7] = test system: MDA-231; assay: MTS growth assay, 3 days treatment; format: cell-based, human; settings: MDA-231, TN (MSL), 100 nM
Experimental: as §1, §2

[8] = test system: MDA-453; assay: MTS growth assay, 3 days treatment; format: cell-based, human; settings: MDA-453, HER2, 100 nM
Experimental: as §1, §2

[9] = test system: MDA-468; assay: MTS growth assay, 3 days treatment; format: cell-based, human; settings: MDA-468, TN (BL1), 100 nM
Experimental: as §1, §2

[10] = test system: SKBR3; assay: MTS growth assay, 3 days treatment; format: cell-based, human; settings: SKBR3, HER2, 100 nM
Experimental: as §1, §2

[11] = test system: SUM149; assay: MTS growth assay, 3 days treatment; format: cell-based, human; settings: SUM149, TN (BL2), 100 nM
Experimental: as §1, §2

[12] = test system: T47D; assay: MTS growth assay, 3 days treatment; format: cell-based, human; settings: Luminal A, 100 nM
Experimental: as §1, §2

[13] = test system: human breast cancer cells; assay: IC50 of AMPI-109 for cellular growth (MTS); format: cell-based; settings: breast cancer cell lines, read-out: approximate IC50
Experimental: as §1

[14] = test system: patient-derived triple negative breast cancer tumor xenograft; assay: Patient-derived TNBC tumor xenograft growth inhibition; format: in vivo, NOD-SCID mice; settings: 1 ug/kg i.p. every other day for three weeks, vs vehicle
Excerpt: The inventors further examined the ability of AMPI-109 to inhibit the growth of a patient-derived triple negative breast cancer tumor xenograft. A tumor from a person diagnosed with stage 4 triple negative breast cancer was propagated by serial passage through NOD-SCID mice. The tumor was dissected into equal sizes and implanted into the left and right mammary fat pads of 12 NOD-SCID mice. Once the tumors reached 100 mm^3 in size the mice were randomized into vehicle- and AMPI-109-treated arms. A total of 19 tumors grew out (9 for vehicle, and 10 for AMPI-109 treated). Vehicle control or AMPI-109 (1 ug/kg body weight) was administered by i.p. injection every other day for three weeks. Upon completion of the study, the tumors were excised and volume and mass were determined. […] The results were shown in FIG. 1, where * indicates a p value of 0.018, which was determined by T-test.

[15] = test system: BT-20; assay: Cell viability by crystal violet staining, 7 days; format: cell-based, human; settings: 100 nM
Experimental: (§3) In order to determine the effects of AMPI-109 on cell viability as one possible explanation of the reduction in tumor size, the inventors plated various breast cancer cell lines in 6-well dishes and treated with either ethanol control (CU), vitamin D (1,25D) or AMPI-109. 1,25D and AMPI-109 were administered at 100 nM. The plates were incubated for 7 days and cell viability was assessed by crystal violet staining.

[16] = test system: MCF-10A; assay: Cell viability by crystal violet staining, 7 days; format: cell-based, human; settings: MCF-10A non-malignant, 100 nM
Experimental: as §3

[17] = test system: MCF7; assay: Cell viability by crystal violet staining, 7 days; format: cell-based, human; settings: MCF7 luminal A, 100 nM
Experimental: as §3

[18] = test system: MDA-231; assay: Cell viability by crystal violet staining, 7 days; format: cell-based, human; settings: 100 nM
Experimental: as §3

[19] = test system: BT-20; assay: Apoptosis ELISA assay, 24 hours; format: cell-based, human; settings: 100 nM
Experimental: (§4) The inventors also examined the ability of AMPI-109 to induce apoptosis in TN breast cancer cells by performing ELISA assays. Various cell lines (MCF10A, MCF-7, BT-20 and MDA-231) were treated with ethanol control (C), paclitaxel (100 nM, (T)), 1,25D (100 nM), (D)), or AMPI-109 (100 nM), (A)) for 24 hours. ELISA assays were then performed. The p values in the figure were determined by T-test. […] Therefore, it can be concluded that AMPI-109 appears to specifically induce apoptosis in TN breast cancer cells.

[20] = test system: MDA-231; assay: Apoptosis ELISA assay, 24 hours; format: cell-based, human; settings: 100 nM
Experimental: as §4

[21] = test system: BT-20; assay: PARP cleavage by western blot, 24 hours; format: cell-based, human; settings: 100 nM
Experimental: (§5) Cleavage of poly (ADP)-ribose polymerase (PARP), a hallmark of apoptosis, was used to further investigate the ability of AMPI-109 to induce apoptosis of TN breast cancer cells. FIG. 2C, wherein PARP cleavage was determined by western blot, summarizes the results of cleaved PARP after treating MCF10A, MCF-7, BT-20 and MDA-231 with ethanol control (C), paclitaxel (100 nM, (T)), 1,25D (100 nM), (D)), or AMPI-109 (100 nM), (A)) for 24 hours. […] Accordingly, the results as described in FIG. 2A, FIG. 2B, and FIG. 2C indicate the capability of AMPI-109 as an agent to induce apoptosis of TN breast cancer cells.

[22] = test system: MCF-7; assay: PARP cleavage by western blot, 24 hours; format: cell-based, human; settings: 100 nM
Experimental: as §5

[23] = test system: MCF10A; assay: PARP cleavage by western blot, 24 hours; format: cell-based, human; settings: 100 nM
Experimental: as §5

[24] = test system: MDA-231; assay: PARP cleavage by western blot, 24 hours; format: cell-based, human; settings: 100 nM
Experimental: as §5

[25] = test system: BT-20 cells; assay: Growth assay in BT-20 cells with VDR shRNA knock down, 72 hours; format: cell-based, human; settings: p<0.001
Excerpt: The inventors used shRNAs directed against VDR in BT-20 cells and examined the response after treatment with AMPI-109. […] The non-silencing control is designated as pLKO.

[26] = test system: BT-20 cells; assay: Block of AMPI-109-mediated growth inhibition by RXR antagonist; format: cell-based, human; settings: doses which blocked VDR-mediated gene expression
Excerpt: VDR activates gene expression as a heterodimer with the retinoid X receptor (RXR). The inventors thus also tested whether pharmacologic inhibition of the VDR axis with HX531, an RXR antagonist, would block AMPI-109-mediated growth inhibition of BT-20 cells.

[27] = test system: VDR-mediated gene expression; assay: VDR-mediated gene expression; format: cell-based
[28] = test system: MCF-10A; assay: Apoptosis ELISA assay, 24 hours; format: cell-based, human; settings: 100 nM
Experimental: as §4

[29] = test system: MCF-7; assay: Apoptosis ELISA assay, 24 hours; format: cell-based, human; settings: 100 nM
Experimental: as §4

| Structure (SMILES) | % Control (growth compared to control treatment) [1] [%] | % Control (growth compared to control treatment) [2] [%] | % Control (growth compared to control treatment) [3] [%] | % Control (growth compared to control treatment) [4] [%] | % Control (growth compared to control treatment) [5] [%] | % Control (growth compared to control treatment) [6] [%] | % Control (growth compared to control treatment) [7] [%] | % Control (growth compared to control treatment) [8] [%] | % Control (growth compared to control treatment) [9] [%] | % Control (growth compared to control treatment) [10] [%] | % Control (growth compared to control treatment) [11] [%] | % Control (growth compared to control treatment) [12] [%] | induction of apoptosis (ELISA) [19] | induction of apoptosis (ELISA) [20] | also measured |
| --- | --- | --- | --- | --- | --- | --- | --- | --- | --- | --- | --- | --- | --- | --- | --- |
| C=C1/C(=C\C=C2/CCC[C@]3(C)[C@@H]([C@H](C)CCCC(C)(C)O)CC[C@@H]23)C[C@@H](O)C[C@@H]1O [1,25D, reference compound] | 82 | 87 | 94 | 83 | 102 | 95 | 96 | 94 | 86 | 100 | 92 | 98 |  |  |  |
| C=C1/C(=C\C=C2/CCC[C@]3(C)[C@@H]([C@H](C)CCCC(C)(C)O)CC[C@@H]23)C[C@@H](OC(=O)CBr)C[C@@H]1O [AMPI-109, 1α,25-Dihydroxyvitamin D3-3β-bromoacetate] | 29 | 66 | 69 | 49 | 99 | 93 | 44 | 86 | 39 | 99 | 39 | 94 | strong induction of apoptosis | strong induction of apoptosis | IC50 [13]: ~100 nM; tumor mass [14]: significant reduction; tumor volume [14]: significant reduction; reduction of the size of the tumors ([14]; p 0.018): approximately 30%; cell viability (crystal violet staining) [15]: significant reduction in cell viability; cell viability (crystal violet staining) [16]: no effect on cell viability; cell viability (crystal violet staining) [17]: no effect on cell viability; cell viability (crystal violet staining) [18]: significant reduction in cell viability; PARP cleavage (western blot) [21]: promoted PARP cleavage; PARP cleavage (western blot) [22]: only in BT-20 and MDA-231 cells; PARP cleavage (western blot) [23]: only in BT-20 and MDA-231 cells; PARP cleavage (western blot) [24]: promoted PARP cleavage; growth inhibition ([25]; BT-20 cells with VDR knocked down (VDR3, VDR8 shRNAs)): equally effective at inhibiting the growth; growth inhibition ([25]; BT-20 control cells (pLKO non-silencing)): equally effective at inhibiting the growth |
| CN1c2ccc([N+](=O)[O-])cc2N=C(c2ccc(C(=O)O)cc2)c2cc3c(cc21)C(C)(C)CCC3(C)C [HX531] |  |  |  |  |  |  |  |  |  |  |  |  |  |  | effect on AMPI-109-mediated growth inhibition [26]: did not inhibit the antiproliferative effects of AMPI-109; effect on VDR-mediated gene expression [27]: blocked VDR-mediated gene expression |
| CC(=O)O[C@H]1C(=O)[C@@]2(C)[C@H]([C@H](OC(=O)c3ccccc3)[C@]3(O)C[C@H](OC(=O)[C@H](O)[C@@H](NC(=O)c4ccccc4)c4ccccc4)C(C)=C1C3(C)C)[C@]1(OC(C)=O)CO[C@@H]1C[C@@H]2O [paclitaxel, reference compound] |  |  |  |  |  |  |  |  |  |  |  |  | induced apoptosis in all cells tested | induced apoptosis in all cells tested | induction of apoptosis (ELISA) [28]: induced apoptosis in all cells tested; induction of apoptosis (ELISA) [29]: induced apoptosis in all cells tested |
